The subject of data set [1] is human breast cancer cell (MCF-7). In words: cells. As to conditions: for TGI MCF-7: 72 hours culture with compound, maximum concentration 10 μM; for GI50 / CC50: Homo sapiens, MCF7, 72 h; for GI50: read-out: GI50 MCF-7; for CC50: read-out: LC50 MCF-7. The method, then:
(§1) As positive control substances, 5-fluorouracil (5-FU, Sigma) and gemcitabine hydrochloride (Gemzar, GEM, Eli Lilly Japan K.K.), were tested. The experiment was carried out in accordance with the method carried out by the Commission of Screening for Carcinostatic Agents of the Ministry of Education, Culture, Sports, Science and Technology. With respect to each of experiment groups, the experiment was repeated nine times and an average value was determined. Specifically, each type of cultured cells were seeded into a 96-well microplate at a density of 1×10^4 cells per well (5.0×10^4 cells/mL, 200 μL), the cells were cultured under 5% CO2 at 37° C. for 24 hours, the culture medium was replaced by a culture medium containing the compound (180 μL, the maximum dose of each of the compound was 10 μM, and the final concentration of dimethylsulfoxide (DMSO, Sigma) was adjusted to 0.25%), and the culture was further continued under the same conditions for 72 hours. In this experiment, Dulbecco's modified Eagle's medium (D-MEM, Wako Pure Chemical Industries, Ltd.) was used for the culture of MIA PaCa-2, and Eagle's minimal essential medium (E-MEM, Wako Pure Chemical Industries, Ltd.) was used for the culture of MCF-7.
(§2) After the completion of the culture, alamar blue (20 μL) (Iwaki Glass Co., Ltd.) was added to the culture medium, the resultant mixture was agitated, the culture was then carried out for 3 hours, and fluorescence values were determined on a fluorescence plate reader (Spectra Max M5 (Nihon Molecular Devices Corporation)) at an excitation wavelength of 530 nm and a fluorescence wavelength of 590 nm.
(§3) The fluorescence values immediately before the action of each of the compounds were determined by replacing the culture medium, adding alamar blue (20 μL) immediately after the replacement of the culture medium, agitating the resultant mixture, carrying out the culture for 3 hours, and measuring the fluorescence values on a fluorescence plate reader.
(§4) On the basis of the measurement values thus obtained, Tz (the state of the cultured cells immediately before the action of the compound), GI50 (the concentration of the compound required for inhibiting the proliferation of the cultured cells by 50% relative to the proliferation of the cultured cells in the presence of […]), TGI (the concentration of the compound required for inhibiting the proliferation of the cells in such a manner that the number of the cells became the same as Tz), LC50 (the concentration of the compound required for decreasing the number of the cells to 50% of Tz) and the proliferation rate (the rate of the proliferation of the cultured cells from the time pint of the action of the compound until the time point of the measurement of fluorescence) were determined.
(§5) Due to the problem of the solubility of each of the compounds, the maximum concentration was set at 10 μM.

Data set [2] concerns human pancreatic cancer cell (MIA PaCa-2). Kind of data set: cells. As to conditions: for TGI MIA PaCa-2: 72 hours culture with compound, maximum concentration 10 μM; for GI50: read-out: GI50 MIA PaCa-2; for proliferation rate: MIA PaCa-2, at a concentration of 10 μM. The method, then:
as §1, §2, §3, §4, §5

Counter-ions that a name gives are not always drawn.

As for `COCCNS(=O)(=O)c1ccc(OC)c2oc(-c3csc(NC(=O)CCl)n3)cc12` [MU-1497, 2-chloro-N-{4-[7-methoxy-4-(2-methoxyethylsulfamoyl)-benzofuran-2-yl]-thiazol-2-yl}-acetamide], in data set [1], the “concentration at which a cytotoxic or cell proliferation inhibition activity was exhibited” value was no less than 5.0 µM, the “TGI MCF-7” value stood at 4.70 µM, the GI50 amounted to 3.82 µM and the CC50 stood at 5.81 µM. Further, the proliferation rate in data set [1] (MCF-7, at a concentration of 10 μM (the maximum dose)) is reported as −99.71%. In data set [2], the “concentration at which a cytotoxic or cell proliferation inhibition activity was exhibited” value was no less than 2.5 µM, the “TGI MIA PaCa-2” value amounted to 6.15 µM and the proliferation rate was −95.39%. For the same compound, the GI50 in data set [2] (Homo sapiens, MIA PaCa-2, 72 h) was determined as 4.22 µM. Moreover, the CC50 in data set [2] (Homo sapiens, MIA PaCa-2, 72 h, read-out: LC50 MIA PaCa-2) was 8.07 µM.

Turning to `Nc1ccn([C@@H]2O[C@H](CO)[C@@H](O)C2(F)F)c(=O)n1` [GEM, gemcitabine hydrochloride], in data set [1], the “cytotoxic or cell proliferation inhibition activity” value was “did not exhibit either of these activities”, the “TGI MCF-7” value is greater than 10 µM, the GI50 was greater than 10 µM and the CC50 was greater than 10 µM. The “concentration from which no increase in the activity was observed” value in data set [1] (MCF-7) was no less than 0.05 µM. In addition, the proliferation rate in data set [1] (MCF-7, at a concentration of 10 ηM) turned out to be 59.52%. In data set [2], the “cytotoxic or cell proliferation inhibition activity” value is reported as “exhibited a cytotoxic or cell proliferation inhibition activity”, the “TGI MIA PaCa-2” value was greater than 10 µM and the proliferation rate came out at 26.47%. In data set [2] (Homo sapiens, MIA PaCa-2, 72 h), the GI50 was 0.035 µM. In addition, in data set [2] (MIA PaCa-2), the “concentration from which no increase in the activity was observed” value was no less than 0.05 µM.

For `O=c1[nH]cc(F)c(=O)[nH]1` [5-FU, 5-fluorouracil], in data set [1], the “cytotoxic or cell proliferation inhibition activity” value is recorded as “did not exhibit either of these activities”, the “TGI MCF-7” value is greater than 10 µM, the GI50 is greater than 10 µM and the CC50 is greater than 10 µM. In addition, in data set [2], the “cytotoxic or cell proliferation inhibition activity” value is reported as “did not exhibit either of these activities” and the “TGI MIA PaCa-2” value was greater than 10 µM. Further, the GI50 in data set [2] (Homo sapiens, MIA PaCa-2, 72 h) was greater than 10 µM.

The GI50 is the concentration giving 50% growth inhibition.
